{"source": "paper PMC7206119", "about": "“RIP1 inhibition blocks inflammatory diseases but not tumor growth or metastases” (Cell Death and Differentiation, 2019)", "assay_in_all_cases": "biochemical", "set-up_in_all_cases": "DiscoverX kinase panel, active-site competition binding (KINOMEscan type), percent of control at one concentration", "settings_in_all_cases": "competition binding, percent of control", "key": {"[1]": {"target": "PIK3C2B (Homo sapiens, UniProt O00750)", "sequence (O00750 whole entry)": "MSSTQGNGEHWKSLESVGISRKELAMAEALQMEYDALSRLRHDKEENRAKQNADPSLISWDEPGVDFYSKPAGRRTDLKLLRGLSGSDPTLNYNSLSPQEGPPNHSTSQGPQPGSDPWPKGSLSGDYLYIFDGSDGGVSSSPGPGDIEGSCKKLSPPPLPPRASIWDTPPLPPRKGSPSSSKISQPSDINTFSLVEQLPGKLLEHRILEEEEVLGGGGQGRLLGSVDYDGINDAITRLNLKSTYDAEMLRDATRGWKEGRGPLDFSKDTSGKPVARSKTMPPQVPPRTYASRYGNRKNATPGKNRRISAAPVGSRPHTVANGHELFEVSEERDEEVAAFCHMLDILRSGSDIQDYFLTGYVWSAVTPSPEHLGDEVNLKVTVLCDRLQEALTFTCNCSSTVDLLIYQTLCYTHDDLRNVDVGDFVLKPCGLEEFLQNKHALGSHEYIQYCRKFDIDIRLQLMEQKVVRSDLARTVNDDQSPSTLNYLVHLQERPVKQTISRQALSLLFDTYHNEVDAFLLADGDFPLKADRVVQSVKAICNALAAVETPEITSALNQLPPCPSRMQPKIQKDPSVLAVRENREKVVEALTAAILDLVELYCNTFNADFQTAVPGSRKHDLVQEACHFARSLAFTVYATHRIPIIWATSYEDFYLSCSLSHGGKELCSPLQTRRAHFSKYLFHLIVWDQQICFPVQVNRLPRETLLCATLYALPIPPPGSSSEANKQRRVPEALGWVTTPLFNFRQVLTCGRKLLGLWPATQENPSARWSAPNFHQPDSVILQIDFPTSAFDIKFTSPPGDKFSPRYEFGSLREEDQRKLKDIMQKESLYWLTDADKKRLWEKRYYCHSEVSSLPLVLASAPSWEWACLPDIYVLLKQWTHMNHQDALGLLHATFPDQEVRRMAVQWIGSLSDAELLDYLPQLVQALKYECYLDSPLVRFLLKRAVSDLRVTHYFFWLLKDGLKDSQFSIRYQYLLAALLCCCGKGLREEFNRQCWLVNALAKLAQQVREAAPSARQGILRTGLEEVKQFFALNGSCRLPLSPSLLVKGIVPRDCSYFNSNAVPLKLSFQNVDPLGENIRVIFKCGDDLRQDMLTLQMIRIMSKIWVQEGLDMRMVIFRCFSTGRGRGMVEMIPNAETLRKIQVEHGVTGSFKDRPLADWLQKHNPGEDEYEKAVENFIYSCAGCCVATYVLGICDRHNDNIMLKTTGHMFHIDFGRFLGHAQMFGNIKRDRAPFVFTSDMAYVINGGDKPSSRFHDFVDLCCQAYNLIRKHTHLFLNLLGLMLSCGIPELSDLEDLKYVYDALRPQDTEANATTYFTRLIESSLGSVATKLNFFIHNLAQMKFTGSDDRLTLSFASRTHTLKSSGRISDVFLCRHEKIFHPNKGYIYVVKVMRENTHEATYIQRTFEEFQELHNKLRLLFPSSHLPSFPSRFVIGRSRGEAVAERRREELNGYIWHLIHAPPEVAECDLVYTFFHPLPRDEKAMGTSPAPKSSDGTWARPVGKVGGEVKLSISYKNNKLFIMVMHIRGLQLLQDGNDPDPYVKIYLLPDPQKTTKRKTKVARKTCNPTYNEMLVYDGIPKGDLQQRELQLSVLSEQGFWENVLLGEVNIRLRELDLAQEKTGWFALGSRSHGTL"}, "[2]": {"target": "T1, RSK4(Kin.Dom.2-C-terminal) (Homo sapiens, UniProt Q9UK32)", "T1 construct": "gene RPS6KA6; Kin.Dom.2-C-terminal"}, "[3]": {"target": "PKNB(M.tuberculosis) (Mycobacterium tuberculosis, UniProt P9WI81)"}, "[4]": {"target": "MET (Homo sapiens, UniProt P08581)", "sequence (P08581 whole entry)": "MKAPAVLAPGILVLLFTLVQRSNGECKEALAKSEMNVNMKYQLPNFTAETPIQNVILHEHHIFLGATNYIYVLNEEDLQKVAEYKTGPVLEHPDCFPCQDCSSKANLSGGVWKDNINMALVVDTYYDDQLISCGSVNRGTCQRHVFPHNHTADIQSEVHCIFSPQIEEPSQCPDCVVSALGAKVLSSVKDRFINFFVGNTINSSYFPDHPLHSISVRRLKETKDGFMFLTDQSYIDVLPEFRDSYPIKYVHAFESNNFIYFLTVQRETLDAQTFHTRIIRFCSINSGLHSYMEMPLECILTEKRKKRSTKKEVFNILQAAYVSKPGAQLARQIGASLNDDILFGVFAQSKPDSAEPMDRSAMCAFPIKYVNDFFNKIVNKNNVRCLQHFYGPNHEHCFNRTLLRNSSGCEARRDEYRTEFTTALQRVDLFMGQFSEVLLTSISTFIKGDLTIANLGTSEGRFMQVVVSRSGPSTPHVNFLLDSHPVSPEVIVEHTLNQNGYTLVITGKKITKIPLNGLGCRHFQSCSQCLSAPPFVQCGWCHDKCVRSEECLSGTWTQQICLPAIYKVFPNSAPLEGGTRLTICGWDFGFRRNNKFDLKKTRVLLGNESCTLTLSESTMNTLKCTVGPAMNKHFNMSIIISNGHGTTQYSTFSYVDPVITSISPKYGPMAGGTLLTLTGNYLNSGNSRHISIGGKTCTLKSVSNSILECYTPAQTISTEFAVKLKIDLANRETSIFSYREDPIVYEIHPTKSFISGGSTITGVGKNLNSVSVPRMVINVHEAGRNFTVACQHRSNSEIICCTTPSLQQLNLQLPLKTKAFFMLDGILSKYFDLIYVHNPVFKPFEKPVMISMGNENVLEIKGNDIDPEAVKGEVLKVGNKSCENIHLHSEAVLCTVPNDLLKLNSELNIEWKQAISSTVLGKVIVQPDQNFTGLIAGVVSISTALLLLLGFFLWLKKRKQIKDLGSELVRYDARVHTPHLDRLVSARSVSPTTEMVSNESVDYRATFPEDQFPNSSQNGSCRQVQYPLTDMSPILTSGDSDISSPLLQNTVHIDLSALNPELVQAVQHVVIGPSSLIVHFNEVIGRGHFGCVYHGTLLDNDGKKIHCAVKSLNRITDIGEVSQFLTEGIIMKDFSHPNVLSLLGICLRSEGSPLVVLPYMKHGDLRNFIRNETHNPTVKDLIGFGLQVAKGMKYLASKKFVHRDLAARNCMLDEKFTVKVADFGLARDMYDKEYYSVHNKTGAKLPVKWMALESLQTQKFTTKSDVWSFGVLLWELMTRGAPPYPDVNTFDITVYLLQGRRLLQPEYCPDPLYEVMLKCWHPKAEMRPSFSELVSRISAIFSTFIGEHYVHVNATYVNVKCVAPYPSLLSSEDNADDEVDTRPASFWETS"}, "[5]": {"target": "LIMK2 (Homo sapiens, UniProt P53671)"}, "[6]": {"target": "CHEK2 (Homo sapiens, UniProt O96017)"}, "[7]": {"target": "T2, ABL1(Q252H)-phosphorylated (Homo sapiens, UniProt P00519, Q252H)", "T2 construct": "phosphorylated"}, "[8]": {"target": "PIK3CG (Homo sapiens, UniProt P48736)", "sequence (P48736 whole entry)": "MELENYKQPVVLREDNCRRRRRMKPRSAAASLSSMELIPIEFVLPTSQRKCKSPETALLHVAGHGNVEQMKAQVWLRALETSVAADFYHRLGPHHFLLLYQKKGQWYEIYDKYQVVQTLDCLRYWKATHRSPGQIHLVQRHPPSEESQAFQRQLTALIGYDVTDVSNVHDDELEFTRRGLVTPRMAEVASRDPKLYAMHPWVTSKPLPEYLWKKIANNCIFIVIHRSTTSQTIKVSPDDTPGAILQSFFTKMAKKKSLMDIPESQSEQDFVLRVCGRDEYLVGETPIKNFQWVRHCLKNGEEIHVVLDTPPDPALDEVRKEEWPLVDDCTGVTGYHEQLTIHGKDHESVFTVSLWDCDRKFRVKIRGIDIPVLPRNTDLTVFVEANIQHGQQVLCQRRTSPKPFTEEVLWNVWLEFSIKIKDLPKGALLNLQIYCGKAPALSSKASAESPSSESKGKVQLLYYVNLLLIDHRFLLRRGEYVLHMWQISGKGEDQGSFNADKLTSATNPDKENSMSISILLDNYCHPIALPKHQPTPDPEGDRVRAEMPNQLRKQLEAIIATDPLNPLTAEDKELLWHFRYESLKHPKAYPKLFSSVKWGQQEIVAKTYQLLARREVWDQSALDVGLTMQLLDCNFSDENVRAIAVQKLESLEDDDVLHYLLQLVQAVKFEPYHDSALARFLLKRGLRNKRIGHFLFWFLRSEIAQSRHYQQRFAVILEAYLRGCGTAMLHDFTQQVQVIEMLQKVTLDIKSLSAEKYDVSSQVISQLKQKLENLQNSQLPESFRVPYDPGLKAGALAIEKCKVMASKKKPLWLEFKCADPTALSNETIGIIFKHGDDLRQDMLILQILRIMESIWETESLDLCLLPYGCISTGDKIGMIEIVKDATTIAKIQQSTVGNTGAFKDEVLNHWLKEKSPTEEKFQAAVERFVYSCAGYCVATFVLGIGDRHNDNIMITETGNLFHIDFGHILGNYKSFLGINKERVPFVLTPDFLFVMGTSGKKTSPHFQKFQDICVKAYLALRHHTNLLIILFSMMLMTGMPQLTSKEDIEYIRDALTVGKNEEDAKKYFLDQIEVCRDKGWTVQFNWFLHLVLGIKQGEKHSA"}, "[9]": {"target": "T3, TRKB (Homo sapiens, UniProt Q16620)", "T3 construct": "gene NTRK2"}, "[10]": {"target": "BRAF(V600E) (Homo sapiens, UniProt P15056, V600E)"}, "[11]": {"target": "T4, JNK1 (Homo sapiens, UniProt P45983)", "T4 construct": "gene MAPK8"}, "[12]": {"target": "EPHA6 (Homo sapiens, UniProt Q9UF33)"}, "[13]": {"target": "CDK3 (Homo sapiens, UniProt Q00526)", "sequence (Q00526 whole entry)": "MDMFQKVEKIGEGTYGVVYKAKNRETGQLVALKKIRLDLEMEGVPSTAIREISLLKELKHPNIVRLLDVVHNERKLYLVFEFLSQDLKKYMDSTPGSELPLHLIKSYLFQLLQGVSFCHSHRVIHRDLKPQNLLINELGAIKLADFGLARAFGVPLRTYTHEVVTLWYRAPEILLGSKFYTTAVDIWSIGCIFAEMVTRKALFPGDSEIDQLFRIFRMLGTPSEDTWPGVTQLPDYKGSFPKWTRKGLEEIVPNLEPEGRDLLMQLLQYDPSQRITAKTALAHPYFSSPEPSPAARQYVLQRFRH"}, "[14]": {"target": "PIK3CA(E545K) (Homo sapiens, UniProt P42336, E545K)"}, "[15]": {"target": "PAK3 (Homo sapiens, UniProt O75914)", "sequence (O75914 whole entry)": "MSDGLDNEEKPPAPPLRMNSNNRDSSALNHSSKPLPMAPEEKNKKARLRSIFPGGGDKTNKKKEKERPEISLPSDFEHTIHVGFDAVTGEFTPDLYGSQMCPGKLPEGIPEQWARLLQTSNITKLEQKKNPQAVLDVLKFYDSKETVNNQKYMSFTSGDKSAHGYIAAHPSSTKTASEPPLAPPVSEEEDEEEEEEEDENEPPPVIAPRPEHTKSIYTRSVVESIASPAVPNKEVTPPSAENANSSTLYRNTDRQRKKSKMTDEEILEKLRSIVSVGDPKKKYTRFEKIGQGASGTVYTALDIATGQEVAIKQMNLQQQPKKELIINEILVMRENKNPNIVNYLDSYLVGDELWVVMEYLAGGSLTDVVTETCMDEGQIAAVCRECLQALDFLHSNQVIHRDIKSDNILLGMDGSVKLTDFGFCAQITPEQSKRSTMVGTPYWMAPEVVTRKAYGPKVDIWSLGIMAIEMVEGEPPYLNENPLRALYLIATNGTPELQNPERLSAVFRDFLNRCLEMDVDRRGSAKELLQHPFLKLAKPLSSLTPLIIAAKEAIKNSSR"}, "[16]": {"target": "CDKL5 (Homo sapiens, UniProt O76039)"}, "[17]": {"target": "EGFR(E746-A750del) (Homo sapiens, UniProt P00533, DEL746-750)"}, "[18]": {"target": "T5, PFPK5(P.falciparum) (Plasmodium falciparum, UniProt P61075)", "T5 construct": "gene MAL13P1.279"}, "[19]": {"target": "NEK9 (Homo sapiens, UniProt Q8TD19)"}, "[20]": {"target": "EPHA4 (Homo sapiens, UniProt P54764)"}, "[21]": {"target": "T6, NDR2 (Homo sapiens, UniProt Q9Y2H1)", "T6 construct": "gene STK38L"}}}
{"compound": "COc1cc2c(cn1)N(C)C(=O)[C@@H](NC(=O)c1nc3n(n1)[C@H](c1ccccc1)CC3)CC2", "note": "[GNE684, (S)-N-((S)-7-methoxy-1-methyl-2-oxo-2,3,4,5-tetrahydro-1H-pyrido[3,4-b]azepin-3-yl)-5-phenyl-6,7-dihydro-5H-pyrrolo[1,2-b][1,2,4]triazole-2-carboxamide]", "values": [{"measurement": "remaining binding at 10 µM", "setting": "[1]", "value": 93, "unit": "%"}, {"measurement": "remaining binding at 10 µM", "setting": "[2]", "value": 95, "unit": "%"}, {"measurement": "remaining binding at 10 µM", "setting": "[3]", "value": 96, "unit": "%"}, {"measurement": "remaining binding at 10 µM", "setting": "[4]", "value": 73, "unit": "%"}, {"measurement": "remaining binding at 10 µM", "setting": "[5]", "value": 32, "unit": "%"}, {"measurement": "remaining binding at 10 µM", "setting": "[6]", "value": 100, "unit": "%"}, {"measurement": "remaining binding at 10 µM", "setting": "[7]", "value": 96, "unit": "%"}, {"measurement": "remaining binding at 10 µM", "setting": "[8]", "value": 89, "unit": "%"}, {"measurement": "remaining binding at 10 µM", "setting": "[9]", "value": 83, "unit": "%"}, {"measurement": "remaining binding at 10 µM", "setting": "[10]", "value": 100, "unit": "%"}, {"measurement": "remaining binding at 10 µM", "setting": "[11]", "value": 97, "unit": "%"}, {"measurement": "remaining binding at 10 µM", "setting": "[12]", "value": 100, "unit": "%"}, {"measurement": "remaining binding at 10 µM", "setting": "[13]", "value": 74, "unit": "%"}, {"measurement": "remaining binding at 10 µM", "setting": "[14]", "value": 55, "unit": "%"}, {"measurement": "remaining binding at 10 µM", "setting": "[15]", "value": 99, "unit": "%"}, {"measurement": "remaining binding at 10 µM", "setting": "[16]", "value": 79, "unit": "%"}, {"measurement": "remaining binding at 10 µM", "setting": "[17]", "value": 94, "unit": "%"}, {"measurement": "remaining binding at 10 µM", "setting": "[18]", "value": 100, "unit": "%"}, {"measurement": "remaining binding at 10 µM", "setting": "[19]", "value": 99, "unit": "%"}, {"measurement": "remaining binding at 10 µM", "setting": "[20]", "value": 94, "unit": "%"}, {"measurement": "remaining binding at 10 µM", "setting": "[21]", "value": 100, "unit": "%"}]}
